Literature values, collected in patent US6890568B2, “Method for management of blood glucose levels” (priority 1999, dated 2005).

Test system: insulin-deficient, streptozotocin-induced rat model of diabetes
Conditions: vanadate in the drinking water

In the case of `[O]=[V]([O-])([O-])[O-]` [vanadate], the control of diabetes is given as “shown to control diabetes” and the side effects is given as “life-threatening diarrhea”.
